In patent publication US20130156753A1 (UNIVERSITY OF ROCHESTER, priority 2010, published 2013):

How the values were obtained:
HDAC5 nuclear export = assay: PMA-induced GFP-HDAC5 nuclear export in Cos7 cells (fluorescence microscopy); format: cell-based
Experimental: A, B, Cos7 cells were co-transfected with expression vectors encoding GFP-tagged HDAC5 (GFP-HDAC5) and constitutively active protein kinases as indicated, and then exposed to phorbol-12-myristate-13-acetate (PMA, […]) for 3 hours. […] A-F, The cells were fixed and the subcellular localization of GFP-HDAC5 was visualized by fluorescence microscopy.
C, D, Cos7 cells were transfected with GFP-HDAC5-WT or GFP-HDAC5-S280D and then exposed to PMA for 3 hours. GFP-HDAC5-S280D but not GFP-HDAC5-WT was resistant to PMA-induced nuclear export. *, p<0.05 versus without PMA, n=4. E, F, Cos7 cells were transfected with Flag-HDAC5-WT or Flag-HDAC5-S280A mutant, and then pretreated with forskolin followed with the exposure to PMA. Phosphorylation of HDAC5 in cell lysates was analyzed by immunoblotting with phospho-specific HDAC5 antibodies that recognize the HDAC5 phosphorylated at Ser259 (E) and Ser498 (F). G, H, Cos7 cells were transfected with Flag-HDAC5-WT, Flag-HDAC5-S280A or Flag-HDAC5-S280D, and then pretreated with forskolin, followed with the exposure to PMA. Coimmunoprecipitation of Flag-HDAC5 in cell lysates and then immunoblotting with anti-14-3-3 beta and anti-Flag antibodies in immunoprecipitates were performed. 14-3-3 in total cell lysates (5% of the input) was determined by immunoblotting with anti-14-3-3 antibodies. Representative blots are shown, n=3.
The cells were fixed and GFP-HDAC5 localization was analyzed by fluorescence microscopy.
For analysis of GFP-HDAC5 subcellular localization in NRVMs and Cos7 cells, cells were plated in the presence of adenovirus (multiplicity of infection, 50 to 100) on 35 mm dishes containing DMEM plus 10% FBS as previously described (Vega R B, et al. (2004) Protein kinases C and D mediate agonist-dependent cardiac hypertrophy through nuclear export of histone deacetylase 5. Mol Cell Biol 24(19):8374-8385).
After 24 hour culture, cells were maintained in serum-free DMEM medium for additional 24 hours, and then exposed to various inducers or inhibitors (for 30 minutes) prior to PE or PMA stimulation for indicated times. The cells were washed with PBS and fixed with 3.7% formaldehyde in PBS. Images were captured at a magnification of ×60, using a fluorescence microscope (Olympus BX51) equipped with a digital camera and Spot software system (RT Color Diagnostic Instruments). For analysis of the myocyte marker, sarcomeric α-actinin antibody and DAPI in neonatal cardiomyocyte, immunocytochemistry were performed according to a standard protocol. For subcellular localization of endogenous HDAC5 in cardiomyocyes, we fixed cells and used the detergent Saponin (Sigma, 84510) to make cells permeable, and then performed immunocytochemistry with anti-HDAC5 antibody (Santa Cruz, sc-11419). For subcellular localization of HDAC5, total around 200 cells were counted in each condition. For cardiomyocyte size, total myocyte surface areas were calculated using NIH Image J software, and expressed as the average of 100 randomly selected cells per condition.

[1] = tested on: MEF2 transcriptional activity; assay: 3xMEF2-luciferase reporter assay in NRVMs; format: cell-based, rat; conditions: PE 24 hours
Experimental: The mRNA was extracted from the cell lysates and then RT-PCR with the primers for ANF, β-MHC, α-SMA, and GADPH (internal control) was performed. *, p<0.05 versus PE+Ad-GFP; #, p<0.05 versus PE+GFP-HDAC5-WT, n=4.
To assess MEF2 and CREB transcriptional activation, an adenovirus was used that encoded a 3×MEF2-dependent reporter gene in which three tandem repeats of MEF2 sites were located upstream of the thymidine kinase gene promoter and plasmid encoding CREB-dependent reporter gene. NRVMs or Cos7 cells cultured in 24-well were co-transfected with 3×MEF2 or CREB luciferase reporter gene and adenovirus encoding LacZ or GFP-HDAC5-WT, GFP-HDAC5-S280A mutant and GFP-HDAC5-S280D mutant. […] The luciferase activities in cell lysates were determined using the Dual-Luciferase Reporter Assay kit (Promega) and Wallac 1420 multi-label counter (PerkinElmer) as described previously (4, 5).

CCCC(=O)Nc1ncnc2c1ncn2[C@@H]1O[C@@H]2COP(=O)(O)O[C@H]2[C@H]1OC(=O)CCC [cAMP, Dibutyryl-cAMP]
PMA-induced HDAC5 nuclear export (HDAC5 nuclear export; GFP-HDAC5-WT, pretreatment, then PMA for 3 hours): totally blocked HDAC5 nuclear export
PMA-induced nuclear export of GFP-HDAC5-S280A (HDAC5 nuclear export; S280A mutant, cAMP pretreatment, PMA 3 hours): inhibited nuclear export of GFP-HDAC5-WT but not GFP-HDAC5-S280A
decrease in MEF2 transcriptional activation with HDAC5-S280A ([1]; NRVMs co-infected with adenoviral GFP-HDAC5-S280A): abolished the decrease in MEF2 transcriptional activation by cAMP
PE-stimulated MEF2 transcriptional activity ([1]; NRVMs with GFP alone or GFP-HDAC5-WT, 30 min pretreatment): significantly inhibited PE-stimulated MEF2 transcriptional activity
